In patent US12195744B2, “Identification of T-cell trafficking genes and uses thereof for increasing infiltration of T-cells into solid tumors” (UNIVERSITY OF IOWA RESEARCH FOUNDATION, priority 2017, dated 2025):
“Also recorded” adds a separate entry of the source.

How the values were obtained:
[1] = tested on: primary mouse splenocytes; assay: PD-1 expression on CD8+ T cells after in vitro treatment of primary mouse splenocytes; assay type: cell-based; conditions: mouse splenocytes treated with 2 μM iAak1 in vitro
Experimental: FIG. 11 illustrates the results of in vitro treatment of primary mouse splenocytes with Aak1 inhibitor (iAak1) on PD-1 expression. Mouse splenocytes were treated with 2 μM concentration of iAak1 and PD-1 expression was assayed in CD8+ T cells.

EG7 cells = assay: Growth of EG7 cells in vitro; assay type: cell-based; conditions: concentrations as high as 2 μM; listed as iAak1
Description: FIG. 14 illustrates the results of Aak1 inhibitor (iAak1) on growth of EG7 cells in vitro.

[2] = tested on: CD8+ T cells in EG7 tumor model; assay: PD-1 expression in tumor-infiltrating versus splenic CD8+ T cells in EG7 tumor model; assay type: in vivo, mice; conditions: oral gavage with twice weekly IP aPD1, vs DMSO, listed as iAak1
Description: (§1) FIG. 13 illustrates the results of Aak1 inhibitor (iAak1) on PD-1 expression in tumor-infiltrating versus splenic CD8+ T cells in an EG7 tumor model. Mice were inoculated with EG7 tumor cells. Treatment began three (3) days post tumor inoculation. All mice received twice weekly IP injections of aPD1. Five (5) mice received DMSO, and five (5) mice received Aak1inh via oral gavage on same days as aPD1 treatment.

[3] = tested on: primary mouse CD8+ T cells; assay: PD-1 expression after in vitro treatment of primary mouse CD8+ T cells; assay type: cell-based; conditions: activated primary mouse CD8+ T cells, measured at days 6, 7, 8 and 9
Experimental: FIG. 9 illustrates the results of in vitro treatment of primary mouse CD8+ T cells with Aak1 inhibitor (iAak1 aka LP-935509) on PD-1 expression. Primary mouse CD8+ T cells were treated with the indicated concentration of LP-935509 and PD-1 expression was measured at days 6, 7, 8, and 9.

A20 tumors = assay: Growth of A20 tumors in mice; assay type: in vivo
Description: FIG. 15 illustrates the results of Aak1 inhibitor (iAak1) on the growth of A20 tumors in mice. Mice were inoculated with A20 tumor cells. Treatment began ten (10) days post tumor inoculation. All mice received twice weekly IP injections of aPD1. Ten (10) mice received DMSO, and ten (10) mice received iAak1 via oral gavage daily.

[4] = tested on: primary mouse CD8+ T cells; assay: Cell proliferation after in vitro treatment of primary mouse CD8+ T cells; assay type: cell-based; conditions: primary mouse CD8+ T cells treated on day 0, optionally activated, assessed days 1-7
Experimental: FIG. 10 illustrates the results of in vitro treatment of primary mouse CD8+ T cells with Aak1 inhibitor (iAak1) on cell proliferation. Primary mouse CD8+ T cells were treated on day 0 with the indicated concentration of LP-935509 and optionally activated. Cell proliferation was assessed at days 1, 2, 3, 4, 5, 6, and 7.

EG7 tumors = assay: Growth of EG7 tumors in mice; assay type: in vivo; conditions: oral gavage on same days as twice weekly IP aPD1, from 3 days post inoculation, vs DMSO
Description: as §1, with “12” for “13”, “the growth of EG7 tumors” for “PD-1 expression”, “mice.” for “tumor-infiltrating versus splenic CD8+ T cells in an EG7 tumor model.”, “iAak1” for “Aak1inh”

COc1ncccc1-c1cnn2ccc(N3CCN(C(=O)OC(C)C)CC3)nc12 [LP-935509]
PD-1 expression in CD8+ T cells [1]: modest increase; also recorded: increases
EG7 cell proliferation in vitro (EG7 cells): not observed to directly increase; also recorded: did not directly increase
PD-1 expression in CD8+ T cells isolated from tumors [2]: increased
PD-1 expression [3]: transient increase
CD3+ T cell infiltration of the tumor (A20 tumors; A20 tumors, daily oral gavage with twice weekly IP aPD1, vs DMSO): moderate inhibit
A20 tumor growth in vivo (A20 tumors; daily oral gavage with twice weekly IP aPD1, from 10 days post inoculation, vs DMSO, listed as iAak1): increased; also recorded: enhanced
cell proliferation [4]: modest enhancement
cell proliferation ([4]; listed as iAak1): modestly enhances
EG7 tumor growth in vivo (EG7 tumors): increased
